Source: patent US20050137172A1, “Haloacetamide and azide substituted compounds and methods of use thereof” (priority 2003, published 2005)
Like-named read-outs stand apart in the source and are kept apart here.

Assays:
[1] = tested on: PPC-1; assay: Cell growth inhibition (sulforhodamine B assay); format: cell-based; conditions: Homo sapiens, PPC-1, 96 h, read-out: IC50 PPC-1
Protocol: (§1) Prostate cancer cell lines were obtained from ATCC. All cells were grown in RPMI-1640 medium containing 2 mM L-glutamine supplemented with 10% fetal bovine serum (FBS) and maintained in a 5% CO2/95% air humidified atmosphere at 37° C.
(§2) Cells were plated on 96-well plates and incubated with drug-containing culture medium (200 μL/well) for 4 (DU 145, PC-3, PPC-1, and TSU) or 6 (LNCaP) days. Medium was replaced with freshly prepared batches every other day during the incubation. At the end of drug treatment, an aliquot of 50 μL of cold (4° C.) trichloroacetic acid (TCA, 50%) was gently layered on the top of growth medium in each well to make a final TCA concentration of 10%. The mixtures were incubated at 4° C. for 1 hour, and then washed 5 times with tap water to remove TCA, growth medium, low-molecular-weight metabolites, and serum proteins. The plates were air dried overnight. Next, fixed cells were stained with 50 μL of SRB solution (0.4%, wt/vol) for 10 minutes. After staining, SRB solution was decanted, and plates were quickly rinsed 5 times with 1% acetic acid to remove unbound dye and air dried overnight. The cellular protein-bound SRB was then dissolved with 200 μL unbuffered Tris base (10 mM, pH 10.5) for 30 minutes on a rocking platform shaker, and absorbance at 540 nm was measured by a plate reader.
(§3) Percentage of cell survival was calculated by absorbance at 540 nm in testing wells divided by absorbance in negative control wells (medium without the test compound). Percentages of cell survival versus drug concentrations were plotted and the concentration of drug that inhibited cell growth by 50% (IC50) was determined by nonlinear regression using WinNonlin (Pharsight Corporation, Mountain View, Calif.).
(§4) METHODS: LNCaP, DU145, PC-3, TSU, and PPC-1 cells were cultured in 96-well plates and treated with increasing concentrations of the compound of interest for 4 days. Cell survival was determined by the sulforhodamine B assay and was plotted as a percentage of control (drug-free wells) versus drug concentration. The concentration of drug that inhibited cell growth by 50% (IC50) was determined by nonlinear regression. Known anticancer drugs were used as cytotoxic positive controls.

[2] = tested on: PC-3; assay: Cell growth inhibition (sulforhodamine B assay); format: cell-based; conditions: Homo sapiens, PC-3, 96 h, read-out: IC50 PC-3
Protocol: as §1, §2, §3, §4

[3] = tested on: TSU; assay: Cell growth inhibition (sulforhodamine B assay); format: cell-based; conditions: Homo sapiens, 96 h, read-out: IC50 TSU
Protocol: as §1, §2, §3, §4

[4] = tested on: DU145; assay: Cell growth inhibition (sulforhodamine B assay); format: cell-based; conditions: Homo sapiens, DU-145, 96 h, read-out: IC50 DU145
Protocol: as §1, §2, §3, §4

[5] = tested on: LNCaP; assay: Cell growth inhibition (sulforhodamine B assay); format: cell-based; conditions: Homo sapiens, read-out: IC50 LNCaP
Protocol: as §1, §2, §3, §4

[6] = tested on: LNCaP cells; assay: TUNEL assay (apoptosis, DNA fragmentation); format: cell-based, human; conditions: LNCaP cells exposed for 24 hours, relative to 0.1% DMSO vehicle control
Protocol: MATERIALS: In Situ Cell Death Detection Kit, Fluorescein (Roche).
METHODS: DNA fragmentation of apoptotic cells was monitored by the TUNEL assay as described by the supplier. Briefly, LNCaP cells were plated at 2×10^5 cells/well in 2-well chamber slides and incubated at 37° C., 5% CO2 for 24 h to allow the cells sufficient time to attach and be in log phase growth at the start of the experiment. The media was aspirated and replaced with media containing vehicle control (DMSO) or drug dissolved in DMSO. The total volume of DMSO/drug added to each well was equal to 0.1% of the media volume in each well. LNCaP cells were treated with vehicle control, and increasing concentrations of Compound A and Compound B ([…]) for 24-48 h. Two wells were treated with the same concentration of the drugs or DMSO for each treatment condition listed above. The media was collected along with the trypsinized cells and centrifuged at 150 ×g for 4 min. The cells were resuspended in 50 μl PBS, pipetted onto poly-lysine coated slides, and then fixed in 4% methanol-free formaldehyde in PBS (H 7.4) for 25 min at 4° C. Cells were permeabilized in 0.2% Triton X-100 in PBS for 5 min at room temperature. […] Green and red fluorescence emissions were observed microscopically using 520 nm and >620 nm filters, respectively.

[7] = tested on: five prostate cancer cell lines; assay: Cell growth inhibition (sulforhodamine B assay), all five lines together; format: cell-based, human; conditions: for IC50 values in inhibiting the growth of all of five prostate cancer cell lines: DU 145, PC-3, TSU, PPC-1, LNCaP; for IC50s from one-day treatment versus 4 or 6 days treatment: comparison of treatment durations
Protocol: as §1, §2, §3, §4

[8] = tested on: LNCaP cells; assay: Growth curve (trypan blue cell count, 120 h); format: cell-based, human
Protocol: (§5) MATERIALS: DMSO is the vehicle control and the solvent for Compound A and Compound B.
(§6) METHODS: Cells were plated at 5-10×10^4 cells/well in five 6-well plates and incubated at 37° C., 5% CO2 for 24 h to allow the cells sufficient time to attach and be in log phase growth at the start of the experiment. The media was aspirated from four of the plates and replaced with media containing vehicle control (DMSO) or drug dissolved in DMSO. The total volume of DMSO/drug added to each well was equal to 0.1% of the media volume in each well. LNCaP, PC-3, MCF-7, and CV-1 cells were treated with vehicle control, and increasing concentrations of Compound A and Compound B (0.01, 0.05, 0.1, 0.5, 1.0, 5.0, and 10.0 μM). Three wells were treated with the same concentration of the drugs or DMSO for each treatment condition listed above. The cells from the remaining 6-well plate were collected and counted to determine plating efficiency. The 6-well plates containing DMSO/drug were incubated for 120 h at 37° C., 5% CO2. After 120 h, the media from each well was collected along with trypsinized cells and centrifuged at 150×g for 4 min. The cells were resuspended in 1 mL of media, from which 90 μl was taken and combined with 10 μl trypan blue for counting on a hemacytometer.

[9] = tested on: MCF-7 cells; assay: Growth curve (trypan blue cell count, 120 h); format: cell-based; conditions: FIG. 2B
Protocol: as §5, §6

[10] = sulforhodamine B assay, 4 days treatment
[11] = sulforhodamine B assay, 4 or 6 days treatment

Row | SMILES | melting point [°C] | IC50 [1, 10] [nM] | IC50 [2, 10] [nM] | IC50 [3, 10] [nM] | IC50 [4, 10] [nM] | IC50 [5, 11] [nM] | also measured
1 | C[C@](O)(COc1ccc(NC(=O)C(F)(F)F)cc1)C(=O)Nc1ccc([N+](=O)[O-])c(C(F)(F)F)c1 | 58 to 60 |  |  |  |  |  | 
2 | C[C@](O)(COc1ccc(NC(=O)CI)cc1)C(=O)Nc1ccc(C#N)c(C(F)(F)F)c1 (hydrate or solvate) | 78 to 80 |  |  |  |  |  | 
3 | C[C@](O)(COc1ccc(NC(=O)C(Cl)(Cl)Cl)cc1)C(=O)Nc1ccc([N+](=O)[O-])c(C(F)(F)F)c1 (hydrate or solvate) | 59 to 61 |  |  |  |  |  | 
4 | C[C@](O)(COc1ccc(N2C(=O)C=CC2=O)cc1)C(=O)Nc1ccc([N+](=O)[O-])c(C(F)(F)F)c1 (hydrate or solvate) | 82 to 84 |  |  |  |  |  | 
5 | O=c1[nH]cc(F)c(=O)[nH]1 [Compound 5-FU, fluorouracil, reference compound] |  | 5500 ± 300 | 12100 ± 900 | 2900 ± 900 | 2600 ± 900 | 900 ± 300 | 
6 | C[C@](O)(COc1ccc(NC(=O)CBr)cc1)C(=O)Nc1ccc([N+](=O)[O-])c(C(F)(F)F)c1 [Compound A] |  | 1100 ± 100 | 2410 ± 600 | 400 ± 300 | 1300 ± 300 | 1100 ± 200 | Apoptosis (green fluorescence, fragmented DNA) in TUNEL assay [6]: exhibit green fluorescence; IC50 values in inhibiting the growth of all of five prostate cancer cell lines [7]: low micro-molar range; IC50s from one-day treatment versus 4 or 6 days treatment [7]: did not show significant difference; Growth inhibitory activity across cell lines (selectivity) ([8]; LNCaP versus PC-3, MCF-7 and CV-1 cells, FIG. 2A): non-selective growth inhibitory activity
7 | C[C@](O)(COc1ccc(NC(=O)CCl)cc1)C(=O)Nc1ccc([N+](=O)[O-])c(C(F)(F)F)c1 [Compound B] |  | 1800 ± 100 | 4200 ± 200 | 1400 ± 400 | 900 ± 100 | 4400 ± 800 | Apoptosis (green fluorescence, fragmented DNA) in TUNEL assay [6]: similar; IC50 values in inhibiting the growth of all of five prostate cancer cell lines [7]: low micro-molar range; IC50s from one-day treatment versus 4 or 6 days treatment [7]: did not show significant difference; Concentration at which MCF-7 cells are sensitive [9]: > 5 µM; Sensitivity of LNCaP cells relative to PC-3 or CV-1 cells ([8]; growth curve, FIG. 2B): approximately 10 fold
8 | N[C@@H](Cc1ccc(N(CCCl)CCCl)cc1)C(=O)O [Melphalan, reference compound] |  |  |  |  |  |  | IC50 [1]: 16200 ± 1800 nM; IC50 [2]: 30400 ± 3100 nM; IC50 [3]: 4000 ± 200 nM; IC50 [4]: 31000 ± 4800 nM; IC50 [5]: 10300 ± 100 nM
